Results from patent publication US6680282B2 (priority 1997, dated 2004).

Experiments:
[1] = test system: Pyricularia oryzae; test: whole plant or invertebrate; format: in vivo; settings: 100 ppm spray, rice seedling (Jikkoku) 4-leaf stage, lesion number on fourth leaf 6 days after inoculation
[2] = test system: Pyricularia oryzae; format: cell-based; settings: 100 ppm in potato dextrose agar, 28 or 22° C., 48 hours
[3] = test system: Cochlioborus miyabeanus; format: cell-based; settings: 100 ppm in potato dextrose agar, 28 or 22° C., 48 hours
[4] = test system: Alternaria alternata Japanese pear pathotype; format: cell-based; settings: 100 ppm in potato dextrose agar, 28 or 22° C., 48 hours
Procedure: (§1) Test for Antifungal Activity
(§2) A test compound dissolved in acetone was mixed in a potato dextrose agar medium (manufactured by Nissui Seiyaku K. K.) so that the final concentration of the test compound was 100 ppm and then poured in a Petri dish. To this Perti dish after the agar was completely solidified, a cylindrical section prepared by punching a mycelial colony of each of plant pathogenic fungi cultured in another Petri dish by means of a cork borer was inoculated and cultured at 28 or 22° C. 48 Hours after the inoculation, the diameter of the mycelial colony was determined. Control percentages were calculated by comparing the diameter of the mycelial colony in a treated area with that in an untreated area. And, antifungal effect was ranked according to the following criterion.
(§3) A; control percentage ≧80%
(§4) B; control percentage 50 to 79%
(§5) C; control percentage <50%

[5] = test system: Botrytis cinerea; format: cell-based; settings: 100 ppm in potato dextrose agar, 28 or 22° C., 48 hours
Procedure: as §1, §2, §3, §4, §5

[6] = test system: Colletotrichum atramentarium; format: cell-based; settings: 100 ppm in potato dextrose agar, 28 or 22° C., 48 hours
Procedure: as §1, §2, §3, §4, §5

[7] = test system: Fusarium oxysporum f. sp. lycopersici; format: cell-based; settings: 100 ppm in potato dextrose agar, 28 or 22° C., 48 hours
Procedure: as §1, §2, §3, §4, §5

[8] = test system: Gibberella fujikuroi; format: cell-based; settings: 100 ppm in potato dextrose agar, 28 or 22° C., 48 hours
Procedure: as §1, §2, §3, §4, §5

[9] = test system: Glomerella cingalata; format: cell-based; settings: 100 ppm in potato dextrose agar, 28 or 22° C., 48 hours
Procedure: as §1, §2, §3, §4, §5

[10] = test system: Rhizoctonia solani; format: cell-based; settings: 100 ppm in potato dextrose agar, 28 or 22° C., 48 hours
Procedure: as §1, §2, §3, §4, §5

[11] = test system: Sclerotinia minor; format: cell-based; settings: 100 ppm in potato dextrose agar, 28 or 22° C., 48 hours
Procedure: as §1, §2, §3, §4, §5

[12] = test system: Verticillium aibo-atrum; format: cell-based; settings: 100 ppm in potato dextrose agar, 28 or 22° C., 48 hours
Procedure: as §1, §2, §3, §4, §5

[13] = test system: Sphaerotheca fuliginea; test: Test for control effect against powdery mildew of Cucurbitaceae (spray on cucumber seedlings); format: in vivo; settings: 200 ppm spray, cucumber first foliage leaf, 10 days after inoculation
Excerpt: Test for Control Effect Against Powdery Mildew of Cucurbitaceae
A spray liquid comprising a test compound whose concentration was adjusted to be 200 ppm by dilution with water was sprayed to a cucumber grown in a vinyl pot of 3 cm in diameter when its first foliage leaf was developed. The air-dried cucumber seedling was inoculated with a conidium suspension of Sphaerotheca fuliginea. Thereafter, the cucumber seedling was transferred in an air-conditioned greenhouse. 10 Days after the inoculation, the disease severity was observed. The protective value was calculated by comparing the disease severity in a treated area with that in an untreated area. Then, control effect was ranked according to the following criterion.
B; protective value 50 to 79%

CCc1ccc2nc(C)c(C)c(OC(C)=O)c2c1 [Compound No. 10]
rank (control effect, protective value from lesion number) [1]: A (protective value ≧80%)
rank (antifungal effect, control percentage of mycelial colony diameter) [2]: A (control percentage ≧80%)
rank (antifungal effect, control percentage of mycelial colony diameter) [3]: B (control percentage 50 to 79%)
rank (antifungal effect, control percentage of mycelial colony diameter) [4]: C (control percentage <50%)
rank (antifungal effect, control percentage of mycelial colony diameter) [5]: C (control percentage <50%)
rank (antifungal effect, control percentage of mycelial colony diameter) [6]: B (control percentage 50 to 79%)
rank (antifungal effect, control percentage of mycelial colony diameter) [7]: C (control percentage <50%)
rank (antifungal effect, control percentage of mycelial colony diameter) [8]: C (control percentage <50%)
rank (antifungal effect, control percentage of mycelial colony diameter) [9]: B (control percentage 50 to 79%)
rank (antifungal effect, control percentage of mycelial colony diameter) [10]: C (control percentage <50%)
rank (antifungal effect, control percentage of mycelial colony diameter) [11]: C (control percentage <50%)
rank (antifungal effect, control percentage of mycelial colony diameter) [12]: C (control percentage <50%)

CCCCc1ccc2nc(C)c(C)c(O)c2c1 [Compound No. 28]
rank (control effect, protective value from lesion number) [1]: A (protective value ≧80%)
rank (antifungal effect, control percentage of mycelial colony diameter) [2]: B (control percentage 50 to 79%)
rank (antifungal effect, control percentage of mycelial colony diameter) [3]: C (control percentage <50%)
rank (antifungal effect, control percentage of mycelial colony diameter) [4]: C (control percentage <50%)
rank (antifungal effect, control percentage of mycelial colony diameter) [5]: C (control percentage <50%)
rank (antifungal effect, control percentage of mycelial colony diameter) [6]: B (control percentage 50 to 79%)
rank (antifungal effect, control percentage of mycelial colony diameter) [7]: C (control percentage <50%)
rank (antifungal effect, control percentage of mycelial colony diameter) [8]: C (control percentage <50%)
rank (antifungal effect, control percentage of mycelial colony diameter) [9]: B (control percentage 50 to 79%)
rank (antifungal effect, control percentage of mycelial colony diameter) [10]: C (control percentage <50%)
rank (antifungal effect, control percentage of mycelial colony diameter) [11]: C (control percentage <50%)
rank (antifungal effect, control percentage of mycelial colony diameter) [12]: A (control percentage ≧80%)

CCCCc1ccc2nc(C)c(C)c(OC(C)=O)c2c1 [Compound No. 29]
rank (control effect, protective value from lesion number) [1]: A (protective value ≧80%)
rank (control effect, protective value from disease severity) [13]: B (protective value 50 to 79%)
rank (antifungal effect, control percentage of mycelial colony diameter) [2]: A (control percentage ≧80%)
rank (antifungal effect, control percentage of mycelial colony diameter) [3]: B (control percentage 50 to 79%)
rank (antifungal effect, control percentage of mycelial colony diameter) [4]: C (control percentage <50%)
rank (antifungal effect, control percentage of mycelial colony diameter) [5]: B (control percentage 50 to 79%)
rank (antifungal effect, control percentage of mycelial colony diameter) [6]: B (control percentage 50 to 79%)
rank (antifungal effect, control percentage of mycelial colony diameter) [7]: B (control percentage 50 to 79%)
rank (antifungal effect, control percentage of mycelial colony diameter) [8]: B (control percentage 50 to 79%)
rank (antifungal effect, control percentage of mycelial colony diameter) [9]: A (control percentage ≧80%)
rank (antifungal effect, control percentage of mycelial colony diameter) [10]: C (control percentage <50%)
rank (antifungal effect, control percentage of mycelial colony diameter) [11]: C (control percentage <50%)
rank (antifungal effect, control percentage of mycelial colony diameter) [12]: A (control percentage ≧80%)

CCCCc1ccc2nc(C)c(C)c(OC(=O)C3CC3)c2c1 [compound 31]
rank (control effect, protective value from lesion number) [1]: A (protective value ≧80%)
rank (antifungal effect, control percentage of mycelial colony diameter) [2]: A (control percentage ≧80%)
rank (antifungal effect, control percentage of mycelial colony diameter) [3]: A (control percentage ≧80%)
rank (antifungal effect, control percentage of mycelial colony diameter) [4]: A (control percentage ≧80%)
rank (antifungal effect, control percentage of mycelial colony diameter) [5]: A (control percentage ≧80%)
rank (antifungal effect, control percentage of mycelial colony diameter) [6]: A (control percentage ≧80%)
rank (antifungal effect, control percentage of mycelial colony diameter) [7]: A (control percentage ≧80%)
rank (antifungal effect, control percentage of mycelial colony diameter) [8]: A (control percentage ≧80%)
rank (antifungal effect, control percentage of mycelial colony diameter) [9]: A (control percentage ≧80%)
rank (antifungal effect, control percentage of mycelial colony diameter) [10]: C (control percentage <50%)
rank (antifungal effect, control percentage of mycelial colony diameter) [11]: B (control percentage 50 to 79%)
rank (antifungal effect, control percentage of mycelial colony diameter) [12]: A (control percentage ≧80%)
